Data as given in ChEMBL document CHEMBL3769397, “A new GLP-1 analogue with prolonged glucose-lowering activity in vivo via backbone-based modification at the N-terminus” (Bioorg Med Chem, 2016).

Assays:
[1] = target: Glucagon-like peptide 1 receptor (Homo sapiens, UniProt P43220); assay: Activation of human GLP1R expressed in HEK293 cells preincubated for 30 mins followed by addition of cAMP-d2 conjugate/cryptate conjugate incubated for 60 mins by fluorescence analysis; format: functional, cell-based
[2] = target: T1, DPP4 (dipeptidyl peptidase 4) (Homo sapiens, UniProt P27487); assay: Half life of compound assessed as recombinant human DPP4-mediated cleavage by RP-HPLC analysis; format: ADME
[3] = Retention time of compound over 30 mins by HPLC analysis; format: physicochemical; conditions: 0.5 h
Mus musculus [4] = assay: Reduction in blood glucose in Kunming mouse assessed as blood glucose level at 25 nmol/kg, ip at administered 0 mins followed by first glucose challenge at 40 mins followed by second glucose challenge at 310 mins and measured at 40 mins by glucose tolerance test (reference value: 4.9 to 6.3 mmol/L); format: functional
[5] = target: T1, DPP4 (dipeptidyl peptidase 4); assay: Drug degradation assessed as recombinant human DPP4-mediated cleavage by measuring compound remaining after 12 hrs by RP-HPLC analysis; format: ADME; conditions: read-out: Stability
[6] = target: T1, DPP4 (dipeptidyl peptidase 4); assay: Drug degradation assessed as recombinant human DPP4-mediated cleavage by measuring compound remaining after 24 hrs by RP-HPLC analysis; format: ADME; conditions: read-out: Stability
[7] = target: T1, DPP4 (dipeptidyl peptidase 4); assay: Drug degradation assessed as recombinant human DPP4-mediated cleavage by measuring compound remaining after 48 hrs by RP-HPLC analysis; format: ADME; conditions: read-out: Stability
[8] = target: T1, DPP4 (dipeptidyl peptidase 4); assay: Drug degradation assessed as recombinant human DPP4-mediated cleavage by measuring compound remaining after 72 hrs by RP-HPLC analysis; format: ADME; conditions: read-out: Stability
[9] = target: T1, DPP4 (dipeptidyl peptidase 4); assay: Drug degradation assessed as recombinant human DPP4-mediated cleavage by measuring compound remaining after 96 hrs by RP-HPLC analysis; format: ADME; conditions: read-out: Stability
Mus musculus [10] = assay: Reduction in blood glucose in Kunming mouse assessed as blood glucose level at 25 nmol/kg, ip at administered 0 mins followed by first glucose challenge at 40 mins followed by second glucose challenge at 310 mins and measured at 385 mins by glucose tolerance test (reference value: 4.9 to 6.3 mmol/L); format: functional
Mus musculus [11] = assay: Reduction in blood glucose in Kunming mouse assessed as blood glucose level at 25 nmol/kg, ip at administered 0 mins followed by first glucose challenge at 40 mins followed by second glucose challenge at 310 mins and measured at 350 mins by glucose tolerance test (reference value: 4.9 to 6.3 mmol/L); format: functional
Mus musculus [12] = assay: Reduction in blood glucose in Kunming mouse assessed as blood glucose level at 25 nmol/kg, ip at administered 0 mins followed by first glucose challenge at 40 mins followed by second glucose challenge at 310 mins and measured at 55 mins by glucose tolerance test (reference value: 4.9 to 6.3 mmol/L); format: functional
Mus musculus [13] = assay: Reduction in blood glucose in Kunming mouse assessed as blood glucose level at 25 nmol/kg, ip at administered 0 mins followed by first glucose challenge at 40 mins followed by second glucose challenge at 310 mins and measured at 80 mins by glucose tolerance test (reference value: 4.9 to 6.3 mmol/L); format: functional
Mus musculus [14] = assay: Reduction in blood glucose in Kunming mouse assessed as blood glucose level at 25 nmol/kg, ip at administered 0 mins followed by first glucose challenge at 40 mins followed by second glucose challenge at 310 mins and measured at 115 mins by glucose tolerance test (reference value: 4.9 to 6.3 mmol/L); format: functional
Mus musculus [15] = assay: Reduction in blood glucose in Kunming mouse assessed as blood glucose level at 25 nmol/kg, ip at administered 0 mins followed by first glucose challenge at 40 mins followed by second glucose challenge at 310 mins and measured at 160 mins by glucose tolerance test (reference value: 4.9 to 6.3 mmol/L); format: functional
Mus musculus [16] = assay: Reduction in blood glucose in Kunming mouse assessed as blood glucose level at 25 nmol/kg, ip at administered 0 mins followed by first glucose challenge at 40 mins followed by second glucose challenge at 310 mins and measured at 310 mins by glucose tolerance test (reference value: 4.9 to 6.3 mmol/L); format: functional
Mus musculus [17] = assay: Reduction in blood glucose in Kunming mouse assessed as blood glucose level at 25 nmol/kg, ip at administered 0 mins followed by first glucose challenge at 40 mins followed by second glucose challenge at 310 mins and measured at 325 mins by glucose tolerance test (reference value: 4.9 to 6.3 mmol/L); format: functional
Mus musculus [18] = assay: Reduction in blood glucose in Kunming mouse assessed as blood glucose level at 25 nmol/kg, ip at administered 0 mins followed by first glucose challenge at 40 mins followed by second glucose challenge at 310 mins and measured at 430 mins by glucose tolerance test (reference value: 4.9 to 6.3 mmol/L); format: functional

T1 sequence (P27487 whole entry): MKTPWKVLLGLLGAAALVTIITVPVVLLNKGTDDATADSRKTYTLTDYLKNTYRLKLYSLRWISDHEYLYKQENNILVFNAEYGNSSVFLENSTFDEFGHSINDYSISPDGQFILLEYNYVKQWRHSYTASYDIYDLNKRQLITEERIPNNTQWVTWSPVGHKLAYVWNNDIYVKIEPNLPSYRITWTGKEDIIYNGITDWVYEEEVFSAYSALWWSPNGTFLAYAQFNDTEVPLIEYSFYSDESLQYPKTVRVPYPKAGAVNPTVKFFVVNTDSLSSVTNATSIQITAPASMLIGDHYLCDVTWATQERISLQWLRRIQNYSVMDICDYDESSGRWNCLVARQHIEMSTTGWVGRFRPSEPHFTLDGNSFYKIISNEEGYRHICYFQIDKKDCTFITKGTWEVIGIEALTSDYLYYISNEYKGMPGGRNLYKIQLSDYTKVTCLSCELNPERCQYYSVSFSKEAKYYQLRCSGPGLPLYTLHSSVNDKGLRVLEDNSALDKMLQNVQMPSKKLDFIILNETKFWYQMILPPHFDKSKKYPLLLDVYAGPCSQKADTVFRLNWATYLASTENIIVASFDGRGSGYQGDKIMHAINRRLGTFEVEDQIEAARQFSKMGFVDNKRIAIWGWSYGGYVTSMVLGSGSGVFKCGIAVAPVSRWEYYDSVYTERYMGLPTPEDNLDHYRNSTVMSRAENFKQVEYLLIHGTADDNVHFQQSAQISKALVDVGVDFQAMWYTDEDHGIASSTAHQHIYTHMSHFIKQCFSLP
Chain of Glucagon-like peptide 1 receptor (P43220 whole entry): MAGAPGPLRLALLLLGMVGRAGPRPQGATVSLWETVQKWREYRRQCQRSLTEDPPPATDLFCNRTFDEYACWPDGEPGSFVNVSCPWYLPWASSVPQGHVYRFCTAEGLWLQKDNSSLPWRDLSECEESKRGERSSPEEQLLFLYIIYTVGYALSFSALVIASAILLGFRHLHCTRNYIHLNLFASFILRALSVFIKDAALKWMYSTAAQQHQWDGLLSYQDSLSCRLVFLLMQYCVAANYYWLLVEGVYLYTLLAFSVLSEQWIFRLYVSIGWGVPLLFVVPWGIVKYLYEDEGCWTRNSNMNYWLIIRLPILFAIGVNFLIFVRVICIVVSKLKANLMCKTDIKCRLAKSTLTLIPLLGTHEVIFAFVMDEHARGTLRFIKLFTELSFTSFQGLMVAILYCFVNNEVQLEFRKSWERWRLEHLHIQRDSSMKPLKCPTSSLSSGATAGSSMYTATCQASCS

With `CC[C@H](C)[C@H](NC(=O)[C@H](Cc1ccccc1)NC(=O)[C@H](CCC(=O)O)NC(=O)[C@H](CCCCN)NC(=O)[C@H](C)NC(=O)[C@H](C)NC(=O)[C@H](CCC(N)=O)NC(=O)CNC(=O)[C@H](CCC(=O)O)NC(=O)[C@H](CC(C)C)NC(=O)[C@H](Cc1ccc(O)cc1)NC(=O)[C@H](CO)NC(=O)[C@H](CO)NC(=O)[C@@H](NC(=O)[C@H](CC(=O)O)NC(=O)[C@H](CO)NC(=O)[C@@H](NC(=O)[C@H](Cc1ccccc1)NC(=O)[C@@H](NC(=O)CNC(=O)[C@H](CCC(=O)O)NC(=O)[C@H]1CCC[C@@H]1NC(=O)[C@@H](N)Cc1cnc[nH]1)[C@@H](C)O)[C@@H](C)O)C(C)C)C(=O)N[C@@H](C)C(=O)N[C@@H](Cc1c[nH]c2ccccc12)C(=O)N[C@@H](CC(C)C)C(=O)N[C@H](C(=O)N[C@@H](CCCCN)C(=O)NCC(=O)N[C@@H](CCCNC(=N)N)C(N)=O)C(C)C` as the molecule, how does the EC50 [1] read?
The EC50 was 0.0766 nM.

And the half-life [2]?
Its half-life is over 96 h.

What about the Retention_time [3] of the same molecule?
Its Retention_time is 13.997 min.

And the Activity (Mus musculus [4])?
The Activity was 7 mmol/L.

What about the remaining at 12 h [5] of the same molecule?
The remaining at 12 h was 100%.

And the remaining at 24 h [6]?
Its remaining at 24 h is 100%.

And the remaining at 48 h [7]?
The remaining at 48 h was 100%.

And the remaining at 72 h [8]?
The remaining at 72 h was 100%.

What about the remaining at 96 h [9] of the same molecule?
Its remaining at 96 h is 100%.

What about the Activity (Mus musculus [10]) of the same molecule?
The Activity was 11.4 mmol/L.

What about the Activity (Mus musculus [11]) of the same molecule?
Its Activity is 19.2 mmol/L.

What about the Activity (Mus musculus [12]) of the same molecule?
Its Activity is 14.8 mmol/L.

And the Activity (Mus musculus [13])?
The Activity was 15.9 mmol/L.

What about the Activity (Mus musculus [14]) of the same molecule?
The Activity was 11.5 mmol/L.

What about the Activity (Mus musculus [15]) of the same molecule?
The Activity was 9.1 mmol/L.

What about the Activity (Mus musculus [16]) of the same molecule?
Its Activity is 6.2 mmol/L.

What about the Activity (Mus musculus [17]) of the same molecule?
Its Activity is 22.8 mmol/L.

And the Activity (Mus musculus [18])?
Its Activity is 8.7 mmol/L.

Which Activity (Mus musculus [4]) does the source give for `CC[C@H](C)[C@H](NC(=O)[C@H](Cc1ccccc1)NC(=O)[C@H](CCC(=O)O)NC(=O)[C@H](CCCCN)NC(=O)[C@H](C)NC(=O)[C@H](C)NC(=O)[C@H](CCC(N)=O)NC(=O)CNC(=O)[C@H](CCC(=O)O)NC(=O)[C@H](CC(C)C)NC(=O)[C@H](Cc1ccc(O)cc1)NC(=O)[C@H](CO)NC(=O)[C@H](CO)NC(=O)[C@@H](NC(=O)[C@H](CC(=O)O)NC(=O)[C@H](CO)NC(=O)[C@@H](NC(=O)[C@H](Cc1ccccc1)NC(=O)[C@@H](NC(=O)CNC(=O)[C@H](CCC(=O)O)NC(=O)C1(NC(=O)[C@@H](N)Cc2cnc[nH]2)CC1)[C@@H](C)O)[C@@H](C)O)C(C)C)C(=O)N[C@@H](C)C(=O)N[C@@H](Cc1c[nH]c2ccccc12)C(=O)N[C@@H](CC(C)C)C(=O)N[C@H](C(=O)N[C@@H](CCCCN)C(=O)NCC(=O)N[C@@H](CCCNC(=N)N)C(N)=O)C(C)C` here?
Its Activity is 7.5 mmol/L.

What about the Activity (Mus musculus [10]) of the same molecule?
Its Activity is 10.8 mmol/L.

And the Activity (Mus musculus [11])?
Its Activity is 19.8 mmol/L.

And the Activity (Mus musculus [12])?
Its Activity is 12.9 mmol/L.

What about the Activity (Mus musculus [13]) of the same molecule?
The Activity was 17.2 mmol/L.

What about the Activity (Mus musculus [14]) of the same molecule?
Its Activity is 13.8 mmol/L.

What about the Activity (Mus musculus [15]) of the same molecule?
Its Activity is 6.5 mmol/L.

What about the Activity (Mus musculus [16]) of the same molecule?
Its Activity is 5.9 mmol/L.

What about the Activity (Mus musculus [17]) of the same molecule?
The Activity was 21.2 mmol/L.

What about the Activity (Mus musculus [18]) of the same molecule?
The Activity was 7.1 mmol/L.
